Measured values published in patent US20240408082A1, “METHODS FOR TREATING CANCERS AND TUMORS” (BEYONDSPRING PHARMACEUTICALS, INC., priority 2021, published 2024).

Test system: BXF 1258
Assay: 3D clonogenic assay, Example 1, BXF 1258
Type: cell-based
Conditions: model BXF 1258
Procedure: In the present study, plinabulin was characterized for its ability to inhibit anchorage independent growth and ex vivo colony formation of tumor cells in semi-solid medium. The compound was investigated in 87 out of 93 originally planned tumor xenografts representing all major cancer types using a 3D clonogenic assay in a 96-well format with colony count based on image analysis as read-out. By using this assay, the investigational compound was assessed for the ability to inhibit anchorage independent growth and ex vivo colony formation of tumor cells in semi-solid medium.
A master stock solution of plinabulin was prepared by dissolving the compound in DMSO at a concentration of 9.9 mM. Working stock solutions were prepared by diluting the master stock solution with DMSO to a concentration of 0.99 mM (330-fold the highest test concentration). Small aliquots of the master and working stock were stored at −20° C. […]
Plinabulin was investigated in 87 PDX models representing a number of cancer types. […] The percentage of viable cells was determined in a Neubauer-hemocytometer using trypan blue exclusion. […]
The clonogenic assay was carried out in a 96 well plate format using ultra low attachment plates. […] Cultures were incubated at 37° C. and 7.5% CO2 in a humidified atmosphere 13 days in total and monitored closely for colony growth using an inverted microscope. […]

CC(C)(C)c1[nH]cnc1/C=c1\[nH]c(=O)/c(=C/c2ccccc2)[nH]c1=O [plinabulin, (3Z,6Z)-3-Benzylidene-6-{[5-(2-methyl-2-propanyl)-1H-imidazol-4-yl]methylene}-2,5-piperazinedione]
absolute IC70: 3 nM
